# Measured values: patent publication US12157730B2, “Heteroaryl derivative, method for producing same, and pharmaceutical composition comprising same as effective component” (VORONOI INC., priority 2019, dated 2024)
# Target: T1, Ba/F3 cell EGFR Exon20 ins NPH (Homo sapiens, UniProt P00533, INS773NPH)
# T1 construct: expressed in transfected cells; host or cells: Ba/F3
# Test: Ba/F3 cell proliferation suppression, EGFR Exon20 ins NPH
# Format: cell-based
# Settings: GI50 class; Ba/F3 cell line with NPH inserted at Exon20 of EGFR; 72 hours
# How it was run: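 After 72 h compound exposure (twelve 3-fold steps, 0.3 nM–50 um final), live cells were measured by CellTiter-Glo luminescence and growth expressed as % of control to derive GI50. Cells were seeded at 3000–5000 per well a day earlier; Ba/F3 medium contained IL-3; three repeats.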
row,SMILES,Ba/F3 (NPH) Activity
1,"C=CC(=O)Nc1cc(Nc2cc(N3OCC[C@@H]3c3cccc(Cl)c3C)ncn2)c(OC)cc1N1CCC(N2CC3CCC(C2)N3C2CC2)CC1 [Example 154, N-(5-((6-((R)-3-(3-chloro-2-methylphenyl)isoxazolidine-2-yl)pyrimidine-4-yl)amino)-2-(4-(8-cyclopropyl-3,8-diazabicyclo [3.2.1]octan-3-yl)piperidine-1-yl)-4-methoxyphenyl) acrylamide]",A (GI50 < 50 nM)
2,"C=CC(=O)Nc1cc(Nc2cc(N3OCC[C@@H]3c3ccc(F)c(F)c3F)ncn2)c(OC)cc1N1CCN(C)CC1 [compound 572, N-(4-methoxy-2-(4-methylpiperazine-1-yl)-5-((6-((R)-3-(2,3,4-trifluorophenyl)isoxazolidine-2-yl)pyrimidine-4-yl)amino)phenyl) acrylamide]",A (GI50 < 50 nM)
3,"C=CC(=O)Nc1cc(Nc2cc(N3OCC[C@@H]3Cc3cccc(Cl)c3C)ncn2)c(OC)cc1N1CCC(N2CCN(C3CC3)CC2)CC1 [compound 1025, N-(5-((6-((S)-3-(3-chloro-2-methylbenzyl)isoxazolidine-2-yl)pyrimidine-4-yl)amino)-2-(4-(4-cyclopropylpiperazine-1-yl)piperidine-1-yl)-4-methoxyphenyl) acrylamide]",A (GI50 < 50 nM)
4,"C=CC(=O)Nc1cc(Nc2cc(N3OCC[C@H]3c3c(F)cccc3F)ncn2)c(OC)cc1N(C)CCN(C)C [compound 306, N-(5-((6-((S)-3-(2,6-difluorophenyl)isoxazolidine-2-yl)pyrimidine-4-yl)amino)-2-((2-(dimethylamino)ethyl)(methyl)amino)-4-methoxyphenyl) acrylamide]",B (50 nM ≤ GI50 < 500 nM)
5,"C=CC(=O)Nc1cc(Nc2cc(N3OCC[C@@H]3c3ccc(C)nc3)ncn2)c(OC)cc1N(C)CCOC [Example 223, N-(4-methoxy-2-((2-methoxyethyl) (methyl)amino)-5-((6-((R)-3-(6-methylpyridine-3-yl)isoxazolidine-2-yl)pyrimidine-4-yl)amino)phenyl)acrylamide]",B (50 nM ≤ GI50 < 500 nM)
6,"C=CC(=O)Nc1cc(Nc2cc(N3OCC[C@@H]3c3ccc4ccccc4c3)ncn2)c(OC)cc1N1CCC(N2CCN(C3COC3)CC2)CC1 [Example 200, N-(4-methoxy-5-((6-((R)-3-(naphthalene-2-yl)isoxazolidine-2-yl)pyrimidine-4-yl)amino)-2-(4-(4-(oxetane-3-yl)piperazine-1-yl)piperidine-1-yl)phenyl)acrylamide]",B (50 nM ≤ GI50 < 500 nM)
7,"C=CC(=O)Nc1cc(Nc2cc(N3OCC[C@@H]3c3ccc(C)nc3)ncn2)c(OC)cc1N1CCN(C2CCN(C)CC2)CC1 [Example 48, N-(4-methoxy-2-(4-(1-methylpiperidine-4-yl)piperazine-1-yl)-5-((6-((R)-3-(6-methylpyridine-3-yl)isoxazolidine-2-yl)pyrimidine-4-yl)amino)phenyl) acrylamide]",B (50 nM ≤ GI50 < 500 nM)
8,"C=CC(=O)Nc1cc(Nc2cc(N3OCC[C@@H]3c3ccc(Cl)cc3F)ncn2)c(OC)cc1N1CCC(N(C)C)CC1 [compound 403, N-(5-((6-((R)-3-(4-chloro-2-fluorophenyl)isoxazolidine-2-yl)pyrimidine-4-yl)amino)-2-(4-(dimethylamino)piperidine-1-yl)-4-methoxyphenyl) acrylamide]",A (GI50 < 50 nM)
9,"C=CC(=O)Nc1cc(Nc2cc(N3OCC[C@@H]3c3ccc(Cl)c(F)c3)ncn2)c(OC)cc1N1CCC(N2CCN(C3CCC3)CC2)CC1 [Example 71, N-(5-((6-((R)-3-(4-chloro-3-fluorophenyl)isoxazolidine-2-yl)pyrimidine-4-yl)amino)-2-(4-(4-cyclobutylpiperazine-1-yl)piperidine-1-yl)-4-methoxyphenyl) acrylamide]",A (GI50 < 50 nM)
10,"C=CC(=O)Nc1cc(Nc2cc(N3OCC[C@@H]3c3cc(F)ccc3F)ncn2)c(OC)cc1N1CCC(N2CCCN(C3CC3)CC2)CC1 [compound 829, N-(2-(4-(4-cyclopropyl-1,4-diazepane-1-yl)piperidine-1-yl)-5-((6-((R)-3-(2,5-difluorophenyl)isoxazolidine-2-yl)pyrimidine-4-yl)amino)-4-methoxyphenyl) acrylamide]",A (GI50 < 50 nM)
11,"C=CC(=O)Nc1cc(Nc2cc(N3OCC[C@@H]3c3cccc(OC)c3)ncn2)c(OC)cc1N1CCC(N2CC[C@H](N(C)C)C2)CC1 [compound 729, N-(2-(4-((S)-3-(dimethylamino)pyrolidine-1-yl)piperidine-1-yl)-4-methoxy-5-((6-((R)-3-(3-methoxyphenyl)isoxazolidine-2-yl)pyrimidine-4-yl)amino)phenyl)acrylamide]",A (GI50 < 50 nM)
12,"C=CC(=O)Nc1cc(Nc2cc(N3OCC[C@@H]3c3ccc(Cl)c(Cl)c3F)ncn2)c(OC)cc1N1CCC(N2CC[C@H](N(C)C)C2)CC1 [compound 772, N-(5-((6-((R)-3-(3,4-dichloro-2-fluorophenyl)isoxazolidine-2-yl)pyrimidine-4-yl)amino)-2-(4-((S)-3-(dimethylamino)pyrolidine-1-yl)piperidine-1-yl)-4-methoxyphenyl) acrylamide]",B (50 nM ≤ GI50 < 500 nM)
13,"C=CC(=O)Nc1cc(Nc2cc(N3OCC[C@@H]3c3cccc(Cl)c3Cl)ncn2)c(OC)cc1N1CCC(N2CCN(C3CCOCC3)CC2)CC1 [Example 208, N-(5-((6-((R)-3-(2,3-dichlorophenyl)isoxazolidine-2-yl)pyrimidine-4-yl)amino)-4-methoxy-2-(4-(4-(tetrahydro-2H-pyran-4-yl)piperazine-1-yl)piperidine-1-yl)phenyl)acrylamide]",A (GI50 < 50 nM)

# Continued, values first:
row,Ba/F3 (NPH) Activity,SMILES
1,B (50 nM ≤ GI50 < 500 nM),"C=CC(=O)Nc1cc(Nc2cc(N3OCC[C@@H]3Cc3cccnc3)ncn2)c(OC)cc1N1CCC(N2CCN(C3CC3)[C@H](C)C2)CC1 [compound 1056, N-(2-(4-((R)-4-cyclopropyl-3-methylpiperazine-1-yl)piperidine-1-yl)-4-methoxy-5-((6-((S)-3-(pyridine-3-ylmethyl)isoxazolidine-2-yl)pyrimidine-4-yl)amino)phenyl)acrylamide]"
2,A (GI50 < 50 nM),"C=CC(=O)Nc1cc(Nc2cc(N3OCC[C@@H]3c3ccc(Cl)c(Cl)c3)ncn2)c(OC)cc1N1CCN(C)CC1 [compound 670, N-(5-((6-((R)-3-(3,4-dichlorophenyl)isoxazolidine-2-yl)pyrimidine-4-yl)amino)-4-methoxy-2-(4-methylpiperazine-1-yl)phenyl)acrylamide]"
3,A (GI50 < 50 nM),"C=CC(=O)Nc1cc(Nc2cc(N3OCC[C@@H]3c3ccc(F)c(F)c3F)ncn2)c(OC)cc1N1CCN(CC)CC1 [compound 570, N-(2-(4-ethylpiperazine-1-yl)-4-methoxy-5-((6-((R)-3-(2,3,4-trifluorophenyl)isoxazolidine-2-yl)pyrimidine-4-yl)amino)phenyl) acrylamide]"
4,B (50 nM ≤ GI50 < 500 nM),"C=CC(=O)Nc1cc(Nc2cc(N3OCC[C@@H]3Cc3cc(F)cc(F)c3)ncn2)c(OC)cc1N1CCN(C2CC2)CC1 [compound 1032, N-(2-(4-cyclopropylpiperazine-1-yl)-5-((6-(S)-(3-(3,5-difluorobenzyl)isoxazolidine-2-yl)pyrimidine-4-yl)amino)-4-methoxyphenyl) acrylamide]"
5,A (GI50 < 50 nM),"C=CC(=O)Nc1cc(Nc2cc(N3OCC[C@@H]3c3cccc(F)c3Cl)ncn2)c(OC)cc1N1CCN(CC)CC1 [compound 559, N-(5-((6-((R)-3-(2-chloro-3-fluorophenyl)isoxazolidine-2-yl)pyrimidine-4-yl)amino)-2-(4-ethylpiperazine-1-yl)-4-methoxyphenyl) acrylamide]"
6,B (50 nM ≤ GI50 < 500 nM),"C=CC(=O)Nc1cc(Nc2cc(N3OCC[C@@H]3c3cccc(C#N)c3)ncn2)c(OC)cc1N1CCN(C)CC1 [compound 393, N-(5-((6-((R)-3-(3-cyanophenyl)isoxazolidine-2-yl)pyrimidine-4-yl)amino)-4-methoxy-2-(4-methylpiperazine-1-yl)phenyl)acrylamide]"
7,B (50 nM ≤ GI50 < 500 nM),"C#Cc1cccc([C@H]2CCON2c2cc(Nc3cc(NC(=O)C=C)c(N4CCC(N5CCN(CC)CC5)CC4)cc3OC)ncn2)c1 [compound 652, N-(2-(4-(4-ethylpiperazine-1-yl)piperidine-1-yl)-5-((6-((R)-3-(3-ethynylphenyl)isoxazolidine-2-yl)pyrimidine-4-yl)amino)-4-methoxyphenyl) acrylamide]"
8,C (500 nM ≤ GI50 < 5000 nM),"C=CC(=O)Nc1cc(Nc2cc(N3OCC[C@@H]3Cc3cccnc3)ncn2)c(OC)cc1N1CCC(N2CCN(C3CC3)CC2)CC1 [compound 985, N-(2-(4-(4-cyclopropylpiperazine-1-yl)piperidine-1-yl)-4-methoxy-5-((6-((S)-3-(pyridine-3-ylmethyl)isoxazolidine-2-yl)pyrimidine-4-yl)amino)phenyl) acrylamide]"
9,A (GI50 < 50 nM),"C=CC(=O)Nc1cc(Nc2cc(N3OCC[C@@H]3c3ccc(F)c(Cl)c3F)ncn2)c(OC)cc1N1CCN(CC)CC1 [compound 600, N-(5-((6-((R)-3-(3-chloro-2,4-difluorophenyl)isoxazolidine-2-yl)pyrimidine-4-yl)amino)-2-(4-ethylpiperazine1-yl)-4-methoxyphenyl) acrylamide]"
10,A (GI50 < 50 nM),"C=CC(=O)Nc1cc(Nc2cc(N3OCC[C@@H]3Cc3ccccc3)ncn2)c(OC)cc1N1CCN(CC2CC2)CC1 [compound 959, N-(5-((6-((S)-3-benzylisoxazolidine-2-yl)pyrimidine-4-yl)amino)-2-(4-(cyclopropylmethyl)piperazine-1-yl)-4-methoxyphenyl) acrylamide]"
